Here are results for ten compounds from patent publication US6670345B1 (Dabur Research Foundation, priority 1997, dated 2003).

Holding throughout (conditions): 72 hours
One experiment has as its system human larynx (HeP.2). Nature of the experiment: MTT cytotoxicity assay, human larynx (HeP.2). It is filed as cell-based. Here is the method: (§1) After 72 hours, the assay was terminated and percent cyotoxicities calculated.
(In general: Formazan colour is commonly taken as a measure of viable cells.)

The subject of experiment [1] is ovarian cancer cells (PA-1). The experiment is described as follows: MTT cytotoxicity assay, ovarian cancer cells (PA-1). In kind it is cell-based, human. Here is the method: as §1
A further experiment deals with lymphoma cells (U937). Nature of the experiment: MTT cytotoxicity assay, lymphoma cells (U937). It is filed as cell-based, human. Here is the method: as §1
Another experiment relates to human lung (L132). The experiment is described as follows: MTT cytotoxicity assay, human lung (L132). In kind it is cell-based. Here is the method: as §1
The test system of the next experiment is human prostate (DU145). The experiment is described as follows: MTT cytotoxicity assay, human prostate (DU145). In kind it is cell-based. Here is the method: as §1
The test system of another experiment is human colon (HT29). Nature of the experiment: MTT cytotoxicity assay, human colon (HT29). In kind it is cell-based. Here is the method:
as §1

In a further experiment the test system is leukemia cells (MOLT-4). Nature of the experiment: MTT cytotoxicity assay, leukemia cells (MOLT-4). It is filed as cell-based, human. Here is the method: as §1

Converted amounts (≈) assume the structure as drawn. Some results are limits rather than exact numbers.

With `C=C(C)[C@@H]1CC[C@]2(C(=O)O)CC[C@]3(C)[C@H](CC[C@@H]4[C@@]5(C)CC[C@H](O)C(C)(C)[C@@H]5CC[C@]43C)[C@@H]12` [BA], the “ED50 Larynx Hep. 2” value in the experiment on human larynx (HeP.2) is above 10 µg/mL. Further, in experiment [1], the “ED50 Ovary PA-I” value worked out at 17 µg/mL (≈ 37.2 µM). Besides, the “ED50 Lymphoma U937” value with lymphoma cells (U937) was determined as 0.7 µg/mL (≈ 1.53 µM). In the experiment on human lung (L132), the “ED50 Lung L 132” value was found to be 3.2 µg/mL (≈ 7.01 µM). Besides, the “ED50 Prostate DU 145” value in the experiment on human prostate (DU145) was above 10 µg/mL. Moreover, in the experiment with human colon (HT29), the “ED50 Colon HT-29” value is 1.8 µg/mL (≈ 3.94 µM). Also, the “ED50 Leukemia MOLT-4” value in the experiment on leukemia cells (MOLT-4) worked out at 1.9 µg/mL (≈ 4.16 µM).

As to `C=CC(=O)OC(=O)C12CCC(C(C)C)C1C1CCC3C4(C)CCC(O)C(C)(C)C4CCC3(C)C1(C)CC2` (centres unmarked) [Derivative 1103], the “ED50 Larynx Hep. 2” value in the experiment on human larynx (HeP.2) was determined as 3.0 µg/mL (≈ 5.85 µM). Further, the “ED50 Ovary PA-I” value in experiment [1] was found to be 1.5 µg/mL (≈ 2.93 µM). Also, in the experiment with lymphoma cells (U937), the “ED50 Lymphoma U937” value was 1.0 µg/mL (≈ 1.95 µM). The “ED50 Lung L 132” value in the experiment with human lung (L132) worked out at 4.0 µg/mL (≈ 7.8 µM). For the same compound, the “ED50 Prostate DU 145” value in the experiment on human prostate (DU145) was above 4 µg/mL. Moreover, the “ED50 Colon HT-29” value in the experiment on human colon (HT29) was 10.0 µg/mL (≈ 19.5 µM). Further, the “ED50 Leukemia MOLT-4” value with leukemia cells (MOLT-4) is 1.9 µg/mL (≈ 3.71 µM).

As for `CC(C)C1CCC2(C(=O)O)CCC3(C)C(CCC4C5(C)CCC(N=Cc6ccc(F)c(F)c6)C(C)(C)C5CCC43C)C12` (centres unmarked) [Derivative 998], the “ED50 Larynx Hep. 2” value in the experiment on human larynx (HeP.2) was determined as 3.0 µg/mL (≈ 5.16 µM). Also, the “ED50 Ovary PA-I” value in experiment [1] was 1.2 µg/mL (≈ 2.06 µM). The “ED50 Lymphoma U937” value in the experiment with lymphoma cells (U937) came out at 1.6 µg/mL (≈ 2.75 µM). For the same compound, the “ED50 Lung L 132” value with human lung (L132) turned out to be 2.5 µg/mL (≈ 4.3 µM). In addition, the “ED50 Prostate DU 145” value in the experiment on human prostate (DU145) was found to be 2.2 µg/mL (≈ 3.78 µM). In addition, the “ED50 Colon HT-29” value in the experiment on human colon (HT29) came to 4.0 µg/mL (≈ 6.87 µM). In addition, the “ED50 Leukemia MOLT-4” value in the experiment on leukemia cells (MOLT-4) was 1.9 µg/mL (≈ 3.27 µM).

With `CC(C)C1CCC2(C(=O)O)CCC3(C)C(CCC4C5(C)CCC(OC(=O)c6ccccc6C(F)(F)F)C(C)(C)C5CCC43C)C12` (centres unmarked) [Derivative 943], in the experiment with human larynx (HeP.2), the “ED50 Larynx Hep. 2” value was found to be 2.0 µg/mL (≈ 3.17 µM). Besides, the “ED50 Ovary PA-I” value in experiment [1] was above 4.0 µg/mL. Besides, the “ED50 Lymphoma U937” value in the experiment on lymphoma cells (U937) was determined as 3.2 µg/mL (≈ 5.07 µM). In the experiment on human lung (L132), the “ED50 Lung L 132” value is 4.0 µg/mL (≈ 6.34 µM). The “ED50 Prostate DU 145” value in the experiment on human prostate (DU145) is above 4 µg/mL. For the same compound, the “ED50 Colon HT-29” value in the experiment on human colon (HT29) is above 10 µg/mL. For the same compound, in the experiment on leukemia cells (MOLT-4), the “ED50 Leukemia MOLT-4” value was determined as 1.6 µg/mL (≈ 2.54 µM).

Consider `C=C(C)C1CCC2(C(=O)O)CCC3(C)C(CCC4C5(C)CCC(OC(=O)c6ccc(CCCCC)cc6)C(C)(C)C5CCC43C)C12` (centres unmarked) [Derivative 1104], for which, in the experiment with human larynx (HeP.2), the “ED50 Larynx Hep. 2” value was determined as 1.7 µg/mL (≈ 2.69 µM). Further, the “ED50 Ovary PA-I” value in experiment [1] stood at 0.8 µg/mL (≈ 1.27 µM). In addition, the “ED50 Lymphoma U937” value with lymphoma cells (U937) amounted to 1.1 µg/mL (≈ 1.74 µM). For the same compound, the “ED50 Lung L 132” value with human lung (L132) was 5.9 µg/mL (≈ 9.35 µM). The “ED50 Prostate DU 145” value in the experiment with human prostate (DU145) was 2.0 µg/mL (≈ 3.17 µM). For the same compound, the “ED50 Colon HT-29” value with human colon (HT29) amounted to 3.5 µg/mL (≈ 5.55 µM). Further, the “ED50 Leukemia MOLT-4” value in the experiment on leukemia cells (MOLT-4) was 1.5 µg/mL (≈ 2.38 µM).

For the compound `C=C(C)C1CCC2(C(=O)O)CCC3(C)C(CCC4C5(C)CCC(OC(=O)Cc6cc(OC)ccc6OC)C(C)(C)C5CCC43C)C12` (centres unmarked) [Derivative 1108], in the experiment on human larynx (HeP.2), the “ED50 Larynx Hep. 2” value stood at 1.7 µg/mL (≈ 2.68 µM). Besides, in experiment [1], the “ED50 Ovary PA-I” value stood at 1.3 µg/mL (≈ 2.05 µM). Besides, the “ED50 Lymphoma U937” value in the experiment with lymphoma cells (U937) is 1.0 µg/mL (≈ 1.58 µM). In addition, the “ED50 Lung L 132” value in the experiment on human lung (L132) amounted to 4.6 µg/mL (≈ 7.25 µM). Also, in the experiment on human prostate (DU145), the “ED50 Prostate DU 145” value is above 4 µg/mL. Besides, the “ED50 Colon HT-29” value in the experiment with human colon (HT29) was above 10 µg/mL. Moreover, the “ED50 Leukemia MOLT-4” value in the experiment on leukemia cells (MOLT-4) turned out to be 1.5 µg/mL (≈ 2.36 µM).

On to `C=C(C)C1CCC2(C(=O)O)CCC3(C)C(CCC4C5(C)CCC(OC(=O)c6ccc(CCCCCCC)cc6)C(C)(C)C5CCC43C)C12` (centres unmarked) [Derivative 1138], for which the “ED50 Larynx Hep. 2” value with human larynx (HeP.2) came to 2.0 µg/mL (≈ 3.03 µM). The “ED50 Ovary PA-I” value in experiment [1] is 1.3 µg/mL (≈ 1.97 µM). For the same compound, the “ED50 Lymphoma U937” value in the experiment on lymphoma cells (U937) was determined as 1.1 µg/mL (≈ 1.67 µM). Besides, the “ED50 Lung L 132” value in the experiment on human lung (L132) was 7.0 µg/mL (≈ 10.6 µM). The “ED50 Prostate DU 145” value in the experiment on human prostate (DU145) was above 10 µg/mL. In the experiment with human colon (HT29), the “ED50 Colon HT-29” value is above 10 µg/mL. In the experiment with leukemia cells (MOLT-4), the “ED50 Leukemia MOLT-4” value worked out at 2.0 µg/mL (≈ 3.03 µM).

For the compound `C=C(C)C1CCC2(C(=O)O)CCC3(C)C(CCC4C5(C)CCC(OC(=O)C67CCC(C(C)C)C6C6CCC8C9(C)CC(Br)C(=O)C(C)(C)C9CCC8(C)C6(C)CC7)C(C)(C)C5CCC43C)C12` (centres unmarked) [Derivative 1155], the “ED50 Larynx Hep. 2” value in the experiment with human larynx (HeP.2) was above 10 µg/mL. Also, in experiment [1], the “ED50 Ovary PA-I” value was above 4.0 µg/mL. In addition, in the experiment with lymphoma cells (U937), the “ED50 Lymphoma U937” value was above 10 µg/mL. Further, in the experiment with human lung (L132), the “ED50 Lung L 132” value was above 10 µg/mL. The “ED50 Prostate DU 145” value in the experiment on human prostate (DU145) is above 10 µg/mL. In the experiment on human colon (HT29), the “ED50 Colon HT-29” value is above 10 µg/mL. The “ED50 Leukemia MOLT-4” value in the experiment with leukemia cells (MOLT-4) was 1.1 µg/mL (≈ 1.13 µM).

Turning to `CC(C)C1CCC2(C(=O)O)CCC3(C)C(CCC4C5(C)CCC(NNc6ccccc6)C(C)(C)C5CCC43C)C12` (centres unmarked) [Derivative 878], in the experiment with human larynx (HeP.2), the “ED50 Larynx Hep. 2” value amounted to 2.25 µg/mL (≈ 4.1 µM). Further, the “ED50 Ovary PA-I” value in experiment [1] worked out at 3.5 µg/mL (≈ 6.38 µM). Also, the “ED50 Lymphoma U937” value with lymphoma cells (U937) was 0.4 µg/mL (≈ 0.729 µM). For the same compound, the “ED50 Lung L 132” value with human lung (L132) was determined as 0.8 µg/mL (≈ 1.46 µM). Besides, the “ED50 Colon HT-29” value with human colon (HT29) is 1.75 µg/mL (≈ 3.19 µM). Also, the “ED50 Leukemia MOLT-4” value with leukemia cells (MOLT-4) amounted to 1.6 µg/mL (≈ 2.92 µM).

As to `COc1ccc(NNC2CCC3(C)C(CCC4(C)C3CCC3C5C(C(C)C)CCC5(C(=O)O)CCC34C)C2(C)C)cc1` (centres unmarked) [Derivative 912], in the experiment on human larynx (HeP.2), the “ED50 Larynx Hep. 2” value came out at 7.0 µg/mL (≈ 12.1 µM). The “ED50 Lymphoma U937” value in the experiment on lymphoma cells (U937) was 1.2 µg/mL (≈ 2.07 µM). Further, the “ED50 Lung L 132” value in the experiment on human lung (L132) was above 4 µg/mL. Besides, the “ED50 Prostate DU 145” value with human prostate (DU145) stood at 8.5 µg/mL (≈ 14.7 µM). The “ED50 Colon HT-29” value with human colon (HT29) was determined as 0.35 µg/mL (≈ 0.605 µM). In the experiment on leukemia cells (MOLT-4), the “ED50 Leukemia MOLT-4” value was found to be 1.0 µg/mL (≈ 1.73 µM).
